Earlier results, collected in patent US8143244B2, “Cyclopropyl fused indolobenzazepine HCV NS5B inhibitors” (Bristol-Myers Squibb Company, priority 2009, dated 2012).

What was measured:
HCV = conditions: cited from earlier work
[1] = extended dosing of the combination regimens (interferon and ribavirin); cited from earlier work

Compound	HCV RNA levels in patients (HCV; single agent: transient decrease then rebound, more robust drop combined with interferon and ribavirin)	hepatic toxicity [1]	sustained efficacy in patients (HCV; HCV therapy)
CNC(=O)c1c(-c2ccc(F)cc2)oc2cc(N(CCO)S(C)(=O)=O)c(C3CC3)cc12 [HCV-796]	showed an ability to reduce HCV RNA levels in patients	hepatic toxicity observed	
alpha-interferon and ribavirin			40 % of patients
